{"source": "patent US20090226368A1", "about": "“Androgen-Receptor (AR) Ligands for Use in the Treatment and Diagnosis of AR-Related Pathologies” (priority 2005, published 2009)", "key": {"[1]": {"assay": "PET-CT scan of distribution, bladder activity", "type": "in vivo", "conditions": "normal Lewis male rats, 40 minutes post injection", "method": "In some clinically used radio-tracers, such of FDG, activity is observed in the bladder, and mask the prostate. […] The distribution of the compound was scanned by human PET-CT. Counter dye was injected to the animal 10 minutes prior to the injection of the labeled compound and the exact location of the bladder was detected by CT. In accordance with the biodistribution experiment, activity was measured in the metabolic organs."}, "[2]": {"assay": "Biodistribution in normal Lewis male rats, gamma-counter", "type": "in vivo", "conditions": "tail vein", "method": "The distribution of ^11C-labeled (R)-Compound 3 was measured in normal Lewis male rats which have been kept under SPF conditions. The labeled compound was injected through the tail vein of the rat. The rats were sacrificed 30, 60 and 90 minutes post injection, and prostate, blood, liver, muscle and kidney were removed and the activity in each organ was measured by gamma-counter (Tables 2A-D)."}, "[3]": {"assay": "In-vivo blood stability in nude mice", "conditions": "blood sampled after 0, 15, 30 and 35 minutes, phosphor-imagers", "method": "In-vivo blood stability experiments were performed for the ^11C-labeled (R)-Compound 3. The compound was injected into nude mice. Blood was sampled from the mice after 0, 15, 30 and 35 minutes. The labeled compound was extracted and evaluated using phosphor-imagers."}, "[4]": {"conditions": "30 minutes post injection, Table 2A"}, "[5]": {"conditions": "60 minutes post injection, Table 2B"}, "[6]": {"conditions": "60 minutes post injection, Table 2B (Rats 1, 2)"}, "[7]": {"conditions": "60 minutes post injection, Table 2C"}, "[8]": {"conditions": "60 minutes post injection, Table 2C (Rats 3, 4)"}, "[9]": {"conditions": "90 minutes post injection, Table 2D"}}, "data": [{"smiles": "CN([11CH3])C[C@@](C)(O)C(=O)Nc1ccc(F)c(C(F)(F)F)c1", "note": "[^11C-labeled (R)-Compound 3]", "values": [{"measurement": "activity in the bladder", "setting": "[1]", "value": "No activity was observed in the bladder"}, {"measurement": "Biodistribution Blood, Av.", "setting": "[2]; [4]", "value": 0.76, "unit": "% id/g"}, {"measurement": "Biodistribution Blood, Rat 1", "setting": "[2]; [4]", "value": 0.89, "unit": "% id/g"}, {"measurement": "Biodistribution Blood, Rat 2", "setting": "[2]; [4]", "value": 0.63, "unit": "% id/g"}, {"measurement": "Biodistribution Kidney, Av.", "setting": "[2]; [4]", "value": 12.43, "unit": "% id/g"}, {"measurement": "Biodistribution Kidney, Rat 1", "setting": "[2]; [4]", "value": 15.57, "unit": "% id/g"}, {"measurement": "Biodistribution Kidney, Rat 2", "setting": "[2]; [4]", "value": 9.29, "unit": "% id/g"}, {"measurement": "Biodistribution Liver, Av.", "setting": "[2]; [4]", "value": 3.96, "unit": "% id/g"}, {"measurement": "Biodistribution Liver, Rat 1", "setting": "[2]; [4]", "value": 4.26, "unit": "% id/g"}, {"measurement": "Biodistribution Liver, Rat 2", "setting": "[2]; [4]", "value": 3.67, "unit": "% id/g"}, {"measurement": "Biodistribution Muscle, Av.", "setting": "[2]; [4]", "value": 1.14, "unit": "% id/g"}, {"measurement": "Biodistribution Muscle, Rat 1", "setting": "[2]; [4]", "value": 1.07, "unit": "% id/g"}, {"measurement": "Biodistribution Muscle, Rat 2", "setting": "[2]; [4]", "value": 1.21, "unit": "% id/g"}, {"measurement": "Biodistribution Prostate, Av.", "setting": "[2]; [4]", "value": 1.47, "unit": "% id/g"}, {"measurement": "Biodistribution Prostate, Rat 1", "setting": "[2]; [4]", "value": 1.67, "unit": "% id/g"}, {"measurement": "Biodistribution Prostate, Rat 2", "setting": "[2]; [4]", "value": 1.27, "unit": "% id/g"}, {"measurement": "Biodistribution Blood, Rat 1", "setting": "[2]; [5]", "value": 0.54, "unit": "% id/g"}, {"measurement": "Biodistribution Blood, Rat 2", "setting": "[2]; [5]", "value": 0.41, "unit": "% id/g"}, {"measurement": "Biodistribution Kidney, Rat 1", "setting": "[2]; [5]", "value": 5.03, "unit": "% id/g"}, {"measurement": "Biodistribution Kidney, Rat 2", "setting": "[2]; [5]", "value": 3.54, "unit": "% id/g"}, {"measurement": "Biodistribution Liver, Rat 1", "setting": "[2]; [5]", "value": 8.79, "unit": "% id/g"}, {"measurement": "Biodistribution Liver, Rat 2", "setting": "[2]; [5]", "value": 4.61, "unit": "% id/g"}, {"measurement": "Biodistribution Muscle, Rat 1", "setting": "[2]; [5]", "value": 1.02, "unit": "% id/g"}, {"measurement": "Biodistribution Muscle, Rat 2", "setting": "[2]; [5]", "value": 0.68, "unit": "% id/g"}, {"measurement": "Biodistribution Prostate, Rat 1", "setting": "[2]; [5]", "value": 2.32, "unit": "% id/g"}, {"measurement": "Biodistribution Prostate, Rat 2", "setting": "[2]; [5]", "value": 1.05, "unit": "% id/g"}, {"measurement": "Biodistribution Blood, Av.", "setting": "[2]; [6]", "value": 0.48, "unit": "% id/g"}, {"measurement": "Biodistribution Kidney, Av.", "setting": "[2]; [6]", "value": 4.29, "unit": "% id/g"}, {"measurement": "Biodistribution Liver, Av.", "setting": "[2]; [6]", "value": 6.70, "unit": "% id/g"}, {"measurement": "Biodistribution Muscle, Av.", "setting": "[2]; [6]", "value": 0.85, "unit": "% id/g"}, {"measurement": "Biodistribution Prostate, Av.", "setting": "[2]; [6]", "value": 1.69, "unit": "% id/g"}, {"measurement": "Biodistribution Blood, Rat 3", "setting": "[2]; [7]", "value": 0.28, "unit": "% id/g"}, {"measurement": "Biodistribution Blood, Rat 4", "setting": "[2]; [7]", "value": 0.35, "unit": "% id/g"}, {"measurement": "Biodistribution Kidney, Rat 3", "setting": "[2]; [7]", "value": 2.48, "unit": "% id/g"}, {"measurement": "Biodistribution Kidney, Rat 4", "setting": "[2]; [7]", "value": 2.54, "unit": "% id/g"}, {"measurement": "Biodistribution Liver, Rat 3", "setting": "[2]; [7]", "value": 5.30, "unit": "% id/g"}, {"measurement": "Biodistribution Liver, Rat 4", "setting": "[2]; [7]", "value": 5.14, "unit": "% id/g"}, {"measurement": "Biodistribution Muscle, Rat 3", "setting": "[2]; [7]", "value": 0.55, "unit": "% id/g"}, {"measurement": "Biodistribution Muscle, Rat 4", "setting": "[2]; [7]", "value": 0.56, "unit": "% id/g"}, {"measurement": "Biodistribution Prostate, Rat 3", "setting": "[2]; [7]", "value": 1.13, "unit": "% id/g"}, {"measurement": "Biodistribution Prostate, Rat 4", "setting": "[2]; [7]", "value": 1.18, "unit": "% id/g"}, {"measurement": "Biodistribution Blood, Av.", "setting": "[2]; [8]", "value": 0.32, "unit": "% id/g"}, {"measurement": "Biodistribution Kidney, Av.", "setting": "[2]; [8]", "value": 2.51, "unit": "% id/g"}, {"measurement": "Biodistribution Liver, Av.", "setting": "[2]; [8]", "value": 5.22, "unit": "% id/g"}, {"measurement": "Biodistribution Muscle, Av.", "setting": "[2]; [8]", "value": 0.55, "unit": "% id/g"}, {"measurement": "Biodistribution Prostate, Av.", "setting": "[2]; [8]", "value": 1.16, "unit": "% id/g"}, {"measurement": "Biodistribution Blood, Av.", "setting": "[2]; [9]", "value": 0.36, "unit": "% id/g"}, {"measurement": "Biodistribution Blood, Rat 1", "setting": "[2]; [9]", "value": 0.3, "unit": "% id/g"}, {"measurement": "Biodistribution Blood, Rat 2", "setting": "[2]; [9]", "value": 0.42, "unit": "% id/g"}, {"measurement": "Biodistribution Kidney, Av.", "setting": "[2]; [9]", "value": 2.46, "unit": "% id/g"}, {"measurement": "Biodistribution Kidney, Rat 1", "setting": "[2]; [9]", "value": 2.24, "unit": "% id/g"}, {"measurement": "Biodistribution Kidney, Rat 2", "setting": "[2]; [9]", "value": 2.68, "unit": "% id/g"}, {"measurement": "Biodistribution Liver, Av.", "setting": "[2]; [9]", "value": 5.35, "unit": "% id/g"}, {"measurement": "Biodistribution Liver, Rat 1", "setting": "[2]; [9]", "value": 5.16, "unit": "% id/g"}, {"measurement": "Biodistribution Liver, Rat 2", "setting": "[2]; [9]", "value": 5.55, "unit": "% id/g"}, {"measurement": "Biodistribution Muscle, Av.", "setting": "[2]; [9]", "value": 0.53, "unit": "% id/g"}, {"measurement": "Biodistribution Muscle, Rat 1", "setting": "[2]; [9]", "value": 0.48, "unit": "% id/g"}, {"measurement": "Biodistribution Muscle, Rat 2", "setting": "[2]; [9]", "value": 0.57, "unit": "% id/g"}, {"measurement": "Biodistribution Prostate, Av.", "setting": "[2]; [9]", "value": 1.17, "unit": "% id/g"}, {"measurement": "Biodistribution Prostate, Rat 1", "setting": "[2]; [9]", "value": 1.22, "unit": "% id/g"}, {"measurement": "Biodistribution Prostate, Rat 2", "setting": "[2]; [9]", "value": 1.12, "unit": "% id/g"}, {"measurement": "metabolites in blood in vivo", "setting": "[3]", "value": "No metabolites were evident"}]}]}
